# Columns and labels:
# [1] = female, Long-Evans, rat, in vivo, po, 20 mg/kg
# ovariectomized mice = assay: Estrogenic activity: uterine and vaginal weight in ovariectomized mice, compounds alone; format: in vivo, BALB/c mice; details: OVX mice, no estrone; 10 μg daily oral
# Procedure: Female BALB/c mice (BALB/cAnNCrlBR) weighing 18-20 g were obtained from Charles-River, Inc. (St-Constant, Quebec, Canada) and housed 5 per cage in a temperature (23±1° C.)- and light (12 h light/day, lights on at 7:15)-controlled environment. The mice were fed rodent chow and tap water ad libitum. The animals were ovariectomized (OVX) under Isoflurane anesthesia via bilateral flank incisions and randomly assigned to groups of 10 animals. Ten mice were kept intact as controls.
# In the second experiment (Table 4), TSE 424 was administered orally by gavage once daily at doses of 1, 3, 10 or 30 μg/animal for 9 days, starting 2 days after ovariectomy. In both experiments, to evaluate the antiestrogenic activity, treatment with estrone (E1, 0.06 μg, s.c. injection, twice daily) was started 5 days post-ovariectomy and was administered for a 6 day-period. Compounds were dissolved in ethanol (4% final concentration) and administered in 0.4% methylcellulose. Mice in the intact and OVX control groups received the vehicle alone (4% ETOH-0.4% methylcellulose) during the 9-day period. The animals were killed by exsanguination at the abdominal aorta on the 11th morning following ovariectomy. The uteri and vagina were rapidly dissected, weighed, and kept in 10% buffered formalin for further histologic examination.
# [2] = system: human breast cancer MCF-7 cells; assay: Proliferation of MCF-7 cells (DNA content); format: cell-based; details: Experiment 2
# Procedure: The MCF-7 human breast adenocarcinoma cell line was derived from the pleural effusion of a patient. MCF-7 cells were used between passages 148 and 165 and subcultured weekly.
# Cells in their late logarithmic growth phase were harvested with 0.1% pancreatin (Sigma) and resuspended in the appropriate medium containing 50 ng bovine insulin/mL and 5% (v/v) FBS treated twice with dextran-coated charcoal to remove endogenous steroids. Cells were plated in 24-well Falcon plastic culture plates (2 Cm^2/well) at the indicated density and allowed to adhere to the surface of the plates for 72 h. Thereafter, medium was replaced with fresh medium containing the indicated concentrations of compounds diluted from 1000× stock solutions in 99% redistilled ethanol in the presence or absence of E2. Control cells received only the ethanolic vehicle (0.1% EtOH, v/v). Cells were incubated for the specified time intervals with medium changes at 2- or 3-day intervals. Cell number was determined by measurement of DNA content.
# Dose-response curves as well IC50 values were calculated using a weighted iterative nonlinear least-squares regression. All results are expressed as means±SEM.
# [3] = patients treated with testosterone; cited from earlier work
# [4] = men with serum testosterone <3.0 ng/mL after coronography; control group 15.4%; cited from earlier work
smiles,measurement,setting,value
CC1=C(c2ccc(OC(=O)C(C)(C)C)cc2)[C@H](c2ccc(OCCN3CCCCC3)cc2)Oc2cc(OC(=O)C(C)(C)C)ccc21 [14C-EM-800],"total drug-derived radioactivity in the brain, detection",[1],not detected after 12 hr post dose
Oc1ccc2c(c1)CC[C@H](c1ccccc1)[C@@H]2c1ccc(OCCN2CCCC2)cc1 [lasofoxifene (free base)],stimulation of uterine weight,ovariectomized mice,93%
same,stimulation of vaginal weight,ovariectomized mice,73%
same,Stimulation of DNA by tested compounds,[2],N.S.
C[C@]12CC[C@H]3[C@@H](CCC4=CC(=O)CC[C@@]43C)[C@@H]1CC[C@@H]2O [testosterone],decrease in mortality risk,[3],39%
same,lower incidence of heart disease,[3],20%
same,rate of deaths at 3 years,[4],18.5%

# — US9744177B2, “Treatment of male androgen deficiency symptoms or diseases with sex steroid precursor combined with SERM” (ENDORECHERCHE, INC., priority 2014, dated 2017)
